Experimental data as given in paper PMC10023787, “Trio-pharmacophore DNA-encoded chemical library for simultaneous selection of fragments and linkers” (Nature Communications, 2023).
Read-outs that look alike come from different tables or passages of the source.

Assays:
MMP-2 = molecular target: T1, MMP-2 (Homo sapiens, UniProt P08253); experiment: MMP-2 inhibition assay (fluorogenic peptide substrate); assay type: biochemical; settings: for IC50: n.d: not detected
T1 construct: purchased Sino Biological 10082-HNAH
T1 sequence (P08253 110-660): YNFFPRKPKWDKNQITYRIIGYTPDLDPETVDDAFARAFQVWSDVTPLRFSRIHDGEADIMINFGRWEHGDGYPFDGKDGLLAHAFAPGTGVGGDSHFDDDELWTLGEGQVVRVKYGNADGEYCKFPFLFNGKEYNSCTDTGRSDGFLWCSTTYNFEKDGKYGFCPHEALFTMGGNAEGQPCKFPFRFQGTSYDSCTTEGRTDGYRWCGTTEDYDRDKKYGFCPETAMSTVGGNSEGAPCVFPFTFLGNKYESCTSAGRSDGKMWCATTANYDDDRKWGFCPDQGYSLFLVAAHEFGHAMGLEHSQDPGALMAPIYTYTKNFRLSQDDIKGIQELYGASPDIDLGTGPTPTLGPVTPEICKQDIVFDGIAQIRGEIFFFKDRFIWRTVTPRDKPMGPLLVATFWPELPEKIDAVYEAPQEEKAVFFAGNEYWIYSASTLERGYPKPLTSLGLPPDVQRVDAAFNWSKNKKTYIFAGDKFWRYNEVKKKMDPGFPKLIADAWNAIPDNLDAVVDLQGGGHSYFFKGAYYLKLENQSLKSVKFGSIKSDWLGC
Description: (§1) The inhibition by the small molecule compounds against MMP-2/MMP-9 was measured using an assay probing the enzyme proteolytic activity on the substrate DNP-Pro-Leu-Gly-Met-Trp-Ser-Arg (Enzo Life Sciences, USA). All assays were performed in the assay buffer containing 50 mM Tris, 100 mM NaCl. 5 mM CaCl2, and 0.1% Brij 35, pH 7.5. Human proMMP-2 and proMMP-9 were purchased from Sino biological (Germany). The proMMPs were activated by 1 mM APMA in the assay buffer at 37 °C for 2 h. After activation, MMP-2 was diluted to 6.5 nM of final assay concentration, and MMP-9 was diluted by the buffer to reach 10 nM of final assay concentration. In each well, 49 μl of enzyme solution was incubated with 1 μl of compounds of series of concentration (nM-mM in DMSO) at RT for 30 min. 2 μl of the FRET substrate was added right before the measurement at a final concentration of 25 μM. The rate of hydrolysis was monitored by quantifying the emission at 360 nm (ex: 280 nm). The emission was measured with intervals of the 30 s for 30 min with Synergy H1 Plate Reader (Agilent, USA). The measurements were done in triplicate. […] Then, curves were plotted as a function of the concentration of the inhibitor against the relative enzyme activity. Vmax was derived from the detected […] signal for each concentration and logistic fitting was performed to obtain IC50 values using Origin 2019b (OriginLab).

MMP-9 = molecular target: T2, MMP-9 (Homo sapiens, UniProt P14780); experiment: MMP-9 inhibition assay (fluorogenic peptide substrate); assay type: biochemical; design: remaining enzyme activity (% of control): scale not given here; settings: for IC50: n.d: not detected
T2 construct: purchased Sino Biological 10327-HNAH
Description: as §1

[1] = MMP-2, concentration 1219.00 µM
[2] = mean ± SE, Fig. 5d unit inferred, µM, read-out: IC50
[3] = MMP-9, concentration 1219.00 µM
[4] = mean ± SE, Fig. 5e prints no unit, µM, read-out: IC50

T2 sequence (P14780 107-707 limits assumed): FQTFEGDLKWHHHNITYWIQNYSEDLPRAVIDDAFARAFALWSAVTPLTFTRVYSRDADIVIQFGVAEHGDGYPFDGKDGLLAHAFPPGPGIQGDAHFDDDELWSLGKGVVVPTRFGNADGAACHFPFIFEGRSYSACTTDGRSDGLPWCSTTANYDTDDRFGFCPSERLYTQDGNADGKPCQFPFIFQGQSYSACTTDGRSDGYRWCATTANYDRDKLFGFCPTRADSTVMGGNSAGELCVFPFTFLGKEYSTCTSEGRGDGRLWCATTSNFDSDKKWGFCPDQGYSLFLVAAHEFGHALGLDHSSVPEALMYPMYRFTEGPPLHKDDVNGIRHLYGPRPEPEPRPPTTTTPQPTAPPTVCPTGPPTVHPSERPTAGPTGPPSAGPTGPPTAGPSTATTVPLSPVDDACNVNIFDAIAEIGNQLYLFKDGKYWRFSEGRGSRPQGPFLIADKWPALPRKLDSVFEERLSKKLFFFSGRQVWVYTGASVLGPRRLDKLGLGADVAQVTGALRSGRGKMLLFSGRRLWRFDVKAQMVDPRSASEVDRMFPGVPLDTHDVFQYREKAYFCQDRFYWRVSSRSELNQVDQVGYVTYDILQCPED

SMILES	remaining activity (%) (MMP-2; MMP-2, concentration 0.0156 µM)	remaining activity (%) (MMP-2; MMP-2, concentration 0.08 µM)	remaining activity (%) (MMP-2; MMP-2, concentration 0.39 µM)	remaining activity (%) (MMP-2; MMP-2, concentration 1.95 µM)	remaining activity (%) (MMP-2; MMP-2, concentration 9.75 µM)	remaining activity (%) (MMP-2; MMP-2, concentration 48.76 µM)	remaining activity (%) (MMP-2; MMP-2, concentration 243.80 µM)	remaining activity (%) (MMP-2; [1])	IC50 (MMP-2; [2]) [µM]	remaining enzyme activity (% of control) (MMP-9; MMP-9, concentration 0.08 µM)	remaining enzyme activity (% of control) (MMP-9; MMP-9, concentration 0.39 µM)	remaining enzyme activity (% of control) (MMP-9; MMP-9, concentration 1.95 µM)	remaining enzyme activity (% of control) (MMP-9; MMP-9, concentration 9.75 µM)	remaining enzyme activity (% of control) (MMP-9; MMP-9, concentration 48.76 µM)	remaining enzyme activity (% of control) (MMP-9; MMP-9, concentration 243.80 µM)	remaining enzyme activity (% of control) (MMP-9; [3])	IC50 (MMP-9; [4]) [µM]	further results
O=C(CSCCNC(=O)c1cncc(O)c1)NCC12CC3CC(CC(C3)C1)C2 [66_828 24]	–	–	–	–	–	–	–	–	–	–	–	–	–	–	–	–	–	IC50 (MMP-2; Figure 5d, fragment combination joined by linker, read-out: MMP2 IC50): 184 µM; IC50 (MMP-9; Figure 5d, fragment combination joined by linker, read-out: MMP9 IC50): 216 µM
O=C(Cn1cnc2c(oc3ccccc32)c1=O)NCc1c[nH]nn1 [182+787 Linker 1]	89.30	95.29	92.88	92.98	84.05	61.94	24.12	0.00	95.5 ± 35.1	89.67	88.12	85.78	75.76	77.96	22.66	0.00	143 ± 32.6	–
O=C(CCC(=O)NCc1c[nH]nn1)NCCCCCCCCNC(=O)Cn1cnc2c(oc3ccccc32)c1=O [182+787 Linker 4]	85.89	83.14	79.52	–	75.23	75.41	40.43	0.00	193 ± 24.2	91.89	89.82	91.34	95.46	62.79	34.94	0.00	134 ± 39.6	–
O=C(CCC(=O)NCc1c[nH]nn1)NCCOCCOCCNC(=O)Cn1cnc2c(oc3ccccc32)c1=O [182+787 Linker 10]	104.21	112.47	110.12	98.52	97.01	78.57	30.14	0.00	137 ± 37.5	100.62	94.43	101.63	94.48	72.77	28.00	0.00	126 ± 12	–
O=C(CSCCNC(=O)Cn1cnc2c(oc3ccccc32)c1=O)NCc1c[nH]nn1 [182+787 Linker 24]	–	–	–	–	–	–	–	–	45.9 ± 16.2	–	–	–	–	–	–	–	126 ± 9.6	remaining activity (%) (MMP-2; MMP-2, concentration 0.0171 µM): 92.17; remaining activity (%) (MMP-2; MMP-2, concentration 0.0855 µM): 86.66; remaining activity (%) (MMP-2; MMP-2, concentration 0.43 µM): 97.11; remaining activity (%) (MMP-2; MMP-2, concentration 2.14 µM): 88.49; remaining activity (%) (MMP-2; MMP-2, concentration 10.69 µM): 87.27; remaining activity (%) (MMP-2; MMP-2, concentration 53.44 µM): 39.59; remaining activity (%) (MMP-2; MMP-2, concentration 267.20 µM): 13.68; remaining enzyme activity (% of control) (MMP-9; MMP-9, concentration 0.0855 µM): 86.26; remaining enzyme activity (% of control) (MMP-9; MMP-9, concentration 0.43 µM): 83.15; remaining enzyme activity (% of control) (MMP-9; MMP-9, concentration 2.14 µM): 95.29; remaining enzyme activity (% of control) (MMP-9; MMP-9, concentration 10.69 µM): 93.78; remaining enzyme activity (% of control) (MMP-9; MMP-9, concentration 53.44 µM): 70.78; remaining enzyme activity (% of control) (MMP-9; MMP-9, concentration 267.20 µM): 19.03
Cn1c(O)nc2cc(C(=O)NCCNC(=O)Cn3cnc4c(oc5ccccc54)c3=O)cnc21 [182+826 Linker 1]	–	–	–	93.31	–	–	–	–	–	–	–	89.70	–	–	–	–	–	remaining activity (%) (MMP-2; MMP-2, concentration 0.12 µM): 94.84; remaining activity (%) (MMP-2; MMP-2, concentration 0.49 µM): 90.90; remaining activity (%) (MMP-2; MMP-2, concentration 7.81 µM): 101.10; remaining activity (%) (MMP-2; MMP-2, concentration 31.25 µM): 86.65; remaining activity (%) (MMP-2; MMP-2, concentration 125.00 µM): 86.38; remaining activity (%) (MMP-2; MMP-2, concentration 500.00 µM): 61.56; remaining enzyme activity (% of control) (MMP-9; MMP-9, concentration 0.12 µM): 83.90; remaining enzyme activity (% of control) (MMP-9; MMP-9, concentration 0.49 µM): 96.21; remaining enzyme activity (% of control) (MMP-9; MMP-9, concentration 7.81 µM): 92.69; remaining enzyme activity (% of control) (MMP-9; MMP-9, concentration 31.25 µM): 77.21; remaining enzyme activity (% of control) (MMP-9; MMP-9, concentration 125.00 µM): 71.00; remaining enzyme activity (% of control) (MMP-9; MMP-9, concentration 500.00 µM): 60.44
